# Source: patent US20160039852A1, “THERAPEUTIC USES OF BISPHOSPHONATES” (THE UNIVERSITY OF SHEFFIELD, priority 2013, published 2016)
# “Also recorded” adds a separate entry of the source.
# Legend:
# [1] = system: mTOR pathway; assay: Western blot of mTOR pathway effectors in hMSC; format: cell-based, human
# Method: Three times 10^6 hMSC were lysed in mammalian cell lysis buffer (Mammalian cell lysis kit, Sigma-Aldrich, Dorset, UK) containing 250 mM Tris-5 mM EDTA, 750 mM sodium chloride, 0.5% sodium dodecyl sulphate, 2.5% deoxycholic acid and 5% Igepal supplemented with 10 μl of Proteinase inhibitors cocktail (Sigma-Aldrich, Dorset, UK) containing 4-(2-aminoethyl) benzenesulfonyl fluoride (AEBSF), pepstatin A, bestatin, leupeptin, aprotinin and trans-epoxysuccinyl-L-leucyl-amido(4-guanidino)-butane (E-64) according to manufacturer instruction. Phosphatase inhibitor cocktail (Sigma) was also added when preparing lysates for the detection of AKT, pAKT, P70S6K, and p-P70S6K.
# Protein lysates (50 μg) were diluted in equal volume of 2× Laemmli buffer (Gibco) containing Dithiothreitol (DTT, Sigma,UK). The samples were heated at 95° C. for 5 minutes and loaded on a 12% Tris-glycine gel. After electro-blotting, membranes were blocked with 5% Bovine serum albumin (BSA) in 0.1% Tween 20 in PBS (PBS-T) for detection of glyceraldehyde-3-phosphate dehydrogenase (GAPDH) and 5% dry milk in PBS-T for detection of unprenylated RAP1A (Santacruz Biotechnology, Santa Cruz, USA). In case of P-AKT, P-70S6K membranes were blocked with 5%BSA in 1× tris buffered saline and 0.1% tween-20 (TBS-T), where for AKT and P70S6K membranes were blocked with 5% dry milk in TBS-T. All membranes were blocked for 2 hours at room temperature. The antibody sc1482 for the detection of RAP1A (Santacruz, USA) was diluted in TBS-T at 1:1000. Antibodies for the detection of AKT, P-AKT, P-70S6K AND PP70S6K, (Cell Signalling Technologies, USA) were diluted at 1:1000. GAPDH antibody (Abcam, Cambridge) was diluted at 1:30000. […] Detection was carried out using enhanced chemi-luminescence plus ECL reaction kit (GE Healthcare, Buckinghamshire, UK) and quantification of protein expression was carried out using image J software.
# To test this, the inventors assessed the phosphorylation state of two effectors downstream of TORC1 and TORC2, p-P70S6K and pAKT (Ser473) respectively (FIG. 7A), in hMSC in presence or absence of Zol. […]
# [2] = system: murine multiple myeloma line, 5TGM1; assay: γH2AX DNA damage foci in 5TGM1 multiple myeloma line after irradiation; format: cell-based; settings: irradiated in presence versus absence of Zol, 4 h after irradiation, n=3
# [3] = system: unprenylated RAP1A; assay: Unprenylation (unprenylated RAP1A) in murine tissues following treatment; format: in vivo, C57BL6/J mice; settings: Zol 125 μg/kg, i.p., 3 days, n=6 mice/group
# Method: For in vivo murine experiments C57BL6/J mice aged 8-10 weeks were used. All animals were housed in a conventional, non- specific pathogen free (SPF), mouse facility at the Medical School, University of Sheffield. Mice were fed on a commercially prepared pelleted diet and given water ad libitum. A minimum of 6 mice were used in each experimental group. Depending on the experimental groups, mice were injected either with Zoledronate(single dose, 125 μg/kg) or PBS ip, and sacrificed for tissue collection 3 days after the injection. Snap-frozen tissues were lysed for protein extraction using a tissue homogenizer and mammalian cell lysis buffer containing phosphatase and protease inhibitors. Protein lysates were run on 12% Tris-glycine gels and assessed for unprenylated RAP1A detected by sc1482 antibody RAP1A (Santacruz, USA) at 1:1000 dilution and GAPDH at 1:10000 dilution as described earlier.
# [4] = system: murine tissues; assay: Immuno-staining of γH2AX in murine tissue following irradiation; format: in vivo, C57BL6/J mice; settings: 3Gy irradiation, Zol 125 μg/kg i.p. for 3 days, 12 h post irradiation
# Description: Cells were viewed using in an Inverted Zeiss LSM 510 NLO microscope equipped with Argon (Ar) laser (488 nm) 30 mW to image the fluorescent marker FITC and UV lamp to image DAPI stained nuclei.
# [5] = system: human mesenchymal stem cells (hMSC); assay: Immunostaining of γH2AX DNA damage foci (double stranded breaks) in hMSC; format: cell-based
# Method: DNA damage was induced by exposing hMSC to ^137Cs Gamma source. Cells were washed with PBS and fixed with 4% Para-formaldehyde for […]. Cells were then washed with PBS permeabilized with 0.5% Triton-X (Sigma, UK) for […] and blocked with 5% normal goat serum (DAKO, Glostrup, Denmark) in PBS for 1 hr. This was followed by incubation with primary antibody, anti-phospho histone H2AX (Ser139) (Millipore, Massachusetts, USA) used at 1:800 in 5% normal goat serum, overnight at 4° C. Cells were then washed in PBS and incubated in secondary Anti mouse IgG Fluorescein Isothiocyanate (FITC) conjugated (Insight Biotechnology, Santa Cruz, USA) at 1:200 in PBS for 1 hour at room temperature. The cover-slips were mounted on slides with mounting media (VectaShield) containing 4',6-diamidino-2-phenylindole (DAPI) to stain the nuclei. […] Cells were viewed using in an Inverted Zeiss LSM 510 NLO microscope equipped with Argon (Ar) laser (488 nm) 30 mW to image the fluorescent marker FITC and UV lamp to image DAPI stained nuclei. Five to seven fields consisting of 25 cells in total were randomly selected from a tile scan (20×) and individual cells viewed at 63× were then scored for γH2AX DNA damage foci using ImageJ 1.45 software (http://rsbweb.nih.gov/ij/). One of the factors affecting cellular lifespan is accumulation of DNA damage.
# [6] = system: normal human dermal fibroblasts; assay: γH2AX DNA damage foci in human dermal fibroblasts after irradiation; format: cell-based; settings: 1Gy, Zol (1 μM)
# Method: (B) Number of yH2AX DNA damage foci in human dermal fibroblasts (n=4 cultures) not irradiated (UI) or exposed to irradiation (IR) 1Gy in the presence or absence of Zol (1 μM) and with the addition of Farnesol (FOH) or geranylgeraniol (GGOH).
# [7] = hMSC exposed to Zol (1 μM) for 72 h, n=3
structure (smiles),measurement,setting,value
O=P(O)(O)C(O)(Cn1ccnc1)P(=O)(O)O [Zoledronate],"mTOR signaling (p-mTOR, p-P70S6K, p-AKT, p-FOXO3A), FIG. 12",[1]; hMSC exposed to Zol,inhibition of mTOR signaling
same,p-P70S6K,[1]; [7],significant decrease
same,pAKT (Ser473),[1]; [7],significant decrease
same,number of γH2AX DNA damage foci,[2],No significant difference
same,levels of Rap1A unprenylation in murine tissues,[3],increased levels of Rap1A unprenylation
same,levels of DNA damage (γH2AX foci) in murine tissues,[4],decreased levels of DNA damage
same,"DNA repair (γH2AX DNA damage foci), FIG. 9","[5]; 1 μM, 4 hours after irradiation, Compound C compared with Zol",significant decrease
same,number of γH2AX DNA damage foci after irradiation,"[5]; 1Gy irradiation, compound at 1 μM, foci at 4 h (Zol also 12, 24 h) versus PBS, listed as Zol",significant decrease; also recorded: significant reduction
same,number of γH2AX DNA damage foci after irradiation,[5]; 3 and 5Gy irradiation (data not shown),significant decrease
same,"number of γH2AX DNA damage foci, dose response",[5]; increasing dosing with Zol,reduced number of DNA damage foci
same,incidence of DNA damage foci with passage,"[5]; passage 3 (early) and p10 (late), no irradiation, listed as Zol",significantly higher in untreated hMSC; also recorded: reduced
same,DNA repair ability following irradiation (γH2AX foci),[6],enhances DNA repair ability
